Experimental data: patent US9302999B2, “Substituted triazoles as herbicides” (E. I. DU PONT DE NEMOURS AND COMPANY, priority 2012, dated 2016)

Key:
Type in all cases: in vivo
[1] = tested on: radish, wild (wild radish, Raphanus raphanistrum); assay: Test D pre-/postemergence: radish, wild
In short: (§1)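 We sprayed chemicals in a surfactant-containing solvent onto silt loam at planting (preemergence) and onto 1- to 4-leaf seedlings (postemergence). Fourteen to 21 days later, each species was rated visually from 0 to 100 relative to controls.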

[2] = tested on: field violet (Viola arvensis); assay: Test D pre-/postemergence: field violet
In short: as §1

[3] = tested on: barley, spring (spring barley, Hordeum vulgare); assay: Test D pre-/postemergence: barley, spring
In short: as §1

soybean (Glycine max) = assay: Test F pre-/postemergence: soybean; settings: Preemergence
In short: (§2)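 Seeds were sown in silt loam soil and sprayed preemergence with test chemical in a non-phytotoxic solvent mixture containing surfactant; postemergence treatments went onto plants 2 to 18 cm tall (1- to 4-leaf stage) grown in peat moss/vermiculite medium. After 14 to 21 days in a greenhouse, injury was rated visually against controls, 0 (no effect) to 100 (complete control).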

[4] = tested on: field poppy (Papaver rhoeas); assay: Test D pre-/postemergence: field poppy
In short: as §1

[5] = tested on: barley, winter (winter barley, Hordeum vulgare); assay: Test D pre-/postemergence: barley, winter
In short: as §1

[6] = tested on: oat, wild (wild oat, Avena fatua); assay: Test D pre-/postemergence: oat, wild
In short: as §1

[7] = tested on: poinsettia, wild (wild poinsettia, Euphorbia heterophylla); assay: Test F pre-/postemergence: poinsettia, wild; settings: Preemergence
In short: as §2

[8] = tested on: panicum, fall (fall panicum Panicum dichotomiflorum); assay: Test F pre-/postemergence: panicum, fall; settings: Preemergence
In short: as §2

[9] = tested on: canarygrass (Phalaris minor); assay: Test D pre-/postemergence: canarygrass
In short: as §1

[10] = Postemergence, 31 g ai/ha, scale 0 to 100 (0 no effect, 100 complete control)
[11] = Postemergence, 62 g ai/ha, scale 0 to 100 (0 no effect, 100 complete control)
[12] = Postemergence, 125 g ai/ha, scale 0 to 100, 0 no effect, 100 complete control
[13] = Postemergence, 16 g ai/ha, scale 0 to 100
[14] = Preemergence, 16 g ai/ha, scale 0 to 100, 0 no effect, 100 complete control
[15] = Preemergence, 31 g ai/ha, scale 0 to 100, 0 no effect, 100 complete control
[16] = Preemergence, 62 g ai/ha, scale 0 to 100
[17] = Preemergence, 125 g ai/ha, scale 0 to 100
[18] = 16 g ai/ha, scale 0 to 100, 0 no effect, 100 complete control
[19] = 31 g ai/ha, scale 0 to 100, 0 no effect, 100 complete control

Cc1nn(-c2ccc(C(F)(F)F)c(F)c2)nc1Oc1ccnc(C(F)(F)F)c1 [Compound 148]
Plant response rating: Radish, Wild [1, 10]: 100
Plant response rating: Radish, Wild [1, 11]: 100
Plant response rating: Radish, Wild [1, 12]: 100
Plant response rating, Radish, Wild [1, 13]: 90
Plant response rating, Radish, Wild [1, 14]: 10
Plant response rating, Radish, Wild [1, 15]: 20
Plant response rating, Radish, Wild [1, 16]: 100
Plant response rating, Radish, Wild [1, 17]: 100
Plant response rating: Field Violet [2, 10]: 95
Plant response rating: Field Violet [2, 11]: 95
Plant response rating: Field Violet [2, 12]: 95
Plant response rating, Field Violet [2, 13]: 90
Plant response rating, Field Violet [2, 14]: 90
Plant response rating, Field Violet [2, 15]: 100
Plant response rating, Field Violet [2, 16]: 95
Plant response rating, Field Violet [2, 17]: 100
Plant response rating: Barley, Spring [3, 10]: 15
Plant response rating: Barley, Spring [3, 11]: 20
Plant response rating: Barley, Spring [3, 12]: 25
Plant response rating, Barley, Spring [3, 13]: 10
Plant response rating, Barley, Spring [3, 14]: 0
Plant response rating, Barley, Spring [3, 15]: 0
Plant response rating, Barley, Spring [3, 16]: 5
Plant response rating, Barley, Spring [3, 17]: 5
Plant response rating, Soybean (soybean (Glycine max); [18]): 0
Plant response rating, Soybean (soybean (Glycine max); [19]): 0
Plant response rating, Soybean (soybean (Glycine max); 125 g ai/ha, scale 0 to 100): 20
Plant response rating, Soybean (soybean (Glycine max); 250 g ai/ha, scale 0 to 100): 40
Plant response rating: Field Poppy [4, 10]: 100
Plant response rating: Field Poppy [4, 11]: 95
Plant response rating: Field Poppy [4, 12]: 100
Plant response rating, Field Poppy [4, 13]: 90
Plant response rating, Field Poppy [4, 14]: 10
Plant response rating, Field Poppy [4, 15]: 70
Plant response rating, Field Poppy [4, 16]: 100
Plant response rating, Field Poppy [4, 17]: 95
Plant response rating: Barley, Winter [5, 10]: 20
Plant response rating: Barley, Winter [5, 11]: 25
Plant response rating: Barley, Winter [5, 12]: 30
Plant response rating, Barley, Winter [5, 13]: 10
Plant response rating, Barley, Winter [5, 14]: 0
Plant response rating, Barley, Winter [5, 15]: 0
Plant response rating, Barley, Winter [5, 16]: 5
Plant response rating, Barley, Winter [5, 17]: 5
Plant response rating: Oat, Wild [6, 10]: 15
Plant response rating: Oat, Wild [6, 11]: 30
Plant response rating: Oat, Wild [6, 12]: 55
Plant response rating, Oat, Wild [6, 13]: 5
Plant response rating, Oat, Wild [6, 14]: 5
Plant response rating, Oat, Wild [6, 15]: 20
Plant response rating, Oat, Wild [6, 16]: 30
Plant response rating, Oat, Wild [6, 17]: 65
Plant response rating, Poinsettia, Wild [7, 18]: 0
Plant response rating, Poinsettia, Wild [7, 19]: 0
Plant response rating, Poinsettia, Wild ([7]; 125 g ai/ha, scale 0 to 100): 20
Plant response rating, Poinsettia, Wild ([7]; 250 g ai/ha, scale 0 to 100): 100
Plant response rating, Panicum, Fall [8, 18]: 75
Plant response rating, Panicum, Fall [8, 19]: 85
Plant response rating, Panicum, Fall ([8]; 125 g ai/ha, scale 0 to 100): 100
Plant response rating, Panicum, Fall ([8]; 250 g ai/ha, scale 0 to 100): 100
Plant response rating: Canarygrass [9, 10]: 30
Plant response rating: Canarygrass [9, 11]: 20
Plant response rating: Canarygrass [9, 12]: 70
Plant response rating, Canarygrass [9, 13]: 10
Plant response rating, Canarygrass [9, 14]: 0
Plant response rating, Canarygrass [9, 15]: 50
Plant response rating, Canarygrass [9, 16]: 60
Plant response rating, Canarygrass [9, 17]: 100

CCc1nn(-c2ccc(C(F)(F)F)cc2)nc1Cc1ccnc(C(F)(F)F)c1 [Compound 155]
Plant response rating: Radish, Wild [1, 10]: 95
Plant response rating: Radish, Wild [1, 11]: 95
Plant response rating: Radish, Wild [1, 12]: 100
Plant response rating, Radish, Wild [1, 13]: 85
Plant response rating, Radish, Wild [1, 14]: 100
Plant response rating, Radish, Wild [1, 15]: 95
Plant response rating, Radish, Wild [1, 16]: 100
Plant response rating, Radish, Wild [1, 17]: 100
Plant response rating: Field Violet [2, 10]: 100
Plant response rating: Field Violet [2, 11]: 100
Plant response rating: Field Violet [2, 12]: 95
Plant response rating, Field Violet [2, 13]: 95
Plant response rating, Field Violet [2, 14]: 90
Plant response rating, Field Violet [2, 15]: 95
Plant response rating, Field Violet [2, 16]: 95
Plant response rating, Field Violet [2, 17]: 100
Plant response rating: Barley, Spring [3, 10]: 15
Plant response rating: Barley, Spring [3, 11]: 25
Plant response rating: Barley, Spring [3, 12]: 35
Plant response rating, Barley, Spring [3, 13]: 10
Plant response rating, Barley, Spring [3, 14]: 0
Plant response rating, Barley, Spring [3, 15]: 5
Plant response rating, Barley, Spring [3, 16]: 5
Plant response rating, Barley, Spring [3, 17]: 10
Plant response rating, Soybean (soybean (Glycine max); 125 g ai/ha, scale 0 to 100): 30
Plant response rating, Soybean (soybean (Glycine max); 250 g ai/ha, scale 0 to 100): 30
Plant response rating: Field Poppy [4, 10]: 95
Plant response rating: Field Poppy [4, 11]: 100
Plant response rating: Field Poppy [4, 12]: 100
Plant response rating, Field Poppy [4, 13]: 80
Plant response rating, Field Poppy [4, 14]: 80
Plant response rating, Field Poppy [4, 15]: 95
Plant response rating, Field Poppy [4, 16]: 95
Plant response rating, Field Poppy [4, 17]: 100
Plant response rating: Barley, Winter [5, 10]: 20
Plant response rating: Barley, Winter [5, 11]: 25
Plant response rating: Barley, Winter [5, 12]: 35
Plant response rating, Barley, Winter [5, 13]: 15
Plant response rating, Barley, Winter [5, 14]: 5
Plant response rating, Barley, Winter [5, 15]: 0
Plant response rating, Barley, Winter [5, 16]: 5
Plant response rating, Barley, Winter [5, 17]: 10
Plant response rating: Oat, Wild [6, 10]: 20
Plant response rating: Oat, Wild [6, 11]: 55
Plant response rating: Oat, Wild [6, 12]: 75
Plant response rating, Oat, Wild [6, 13]: 10
Plant response rating, Oat, Wild [6, 14]: 5
Plant response rating, Oat, Wild [6, 15]: 50
Plant response rating, Oat, Wild [6, 16]: 15
Plant response rating, Oat, Wild [6, 17]: 60
Plant response rating, Poinsettia, Wild ([7]; 125 g ai/ha, scale 0 to 100): 80
Plant response rating, Poinsettia, Wild ([7]; 250 g ai/ha, scale 0 to 100): 100
Plant response rating, Panicum, Fall ([8]; 125 g ai/ha, scale 0 to 100): 100
Plant response rating, Panicum, Fall ([8]; 250 g ai/ha, scale 0 to 100): 100
Plant response rating: Canarygrass [9, 10]: 70
Plant response rating: Canarygrass [9, 11]: 70
Plant response rating: Canarygrass [9, 12]: 85
Plant response rating, Canarygrass [9, 13]: 20
Plant response rating, Canarygrass [9, 14]: 10
Plant response rating, Canarygrass [9, 15]: 70
Plant response rating, Canarygrass [9, 16]: 100
Plant response rating, Canarygrass [9, 17]: 100
